This note sets out measurements from patent publication US20210301315A1, “METHODS FOR TREATING POLYMICROBIAL INFECTIONS” (priority 2017, published 2021).

“Also recorded” adds a separate entry of the source.

The test system of assay [1] is Coagulase-negative Staphylococcus (CoNS) and K. pneumoniae. Put plainly: P-AST species-pair interaction on antibiotic resistance (logistic regression, HSAP/UP). The assay is classed as cell-based, Coagulase negative staphylococci; Klebsiella pneumoniae. The following applies: CoNS and K. pneumoniae together v. expected from each species alone (HSAP/UP). As to the method: (§1) The Pooled Antibiotic Sensitivity Test (P-AST) is permitting the organisms identified to grow in the presence of antibiotics and measuring the minimum concentration of antibiotic to inhibit growth. Antibiotic susceptibility testing is performed when at least a single organism within a pool of organisms reaches a certain threshold, (e.g., at least 3,000 cells/ml, at least 5,000 cells/ml, at least 10,000 cells/ml, etc.) and can grow in the presence of the antibiotic in the assay within the time of testing. (Note: 10,000 cells/ml is equivalent to 10,000 CFU/ml.) The present invention is not limited to a 10,000 cells/mL threshold. These pools of organism(s) are inoculated into growth medium then placed onto an antibiotic laden “spec plate” that is then incubated and analyzed for growth. The breakpoints are derived from the CLSI breakpoints.
(§2) P-AST was performed by aliquoting 1 mL of patient urine specimen into a 1.7 mL microcentrifuge tube. After centrifugation, the supernatant was aspirated and discarded, leaving approximately 100 or 50 μL (minimum volume left above pellet created from centrifugation) of patient sample in the microcentrifuge tube. One mL of Mueller Hinton Growth Media was then aliquoted into the patient sample in the microcentrifuge tube and the tubes were incubated at 35° C. in a non-CO2 incubator for 6 hours. Non-inoculated liquid MH-media is incubated as the negative control to confirm the media used is not contaminated. Those samples that reached a minimum threshold of 10,000 cells/mL were then diluted by aliquoting 0.5 mL of sample into a 50 mL conical tube containing Mueller Hinton Growth Media (in this example, the dilution was 1:60, e.g., 500 μL was added to 29.5 mL). 96-well plates pre-loaded with antibiotics were then inoculated with diluted samples and incubated along with control plates for 12-16 hours at 35° C. in a single layer. Optical density of samples was then read on a DensiCHEK plate reader. The DensiCHEK instrument is used to measure the concentration of turbid samples considered positive because PCR-ID result was >=10,000 cells/mL. The turbid samples were diluted/normalized to the same concentration and then added to a volume of liquid, e.g., 29.5 mL of liquid MH-media. A spectrophotometer (plate reader) is used to measure optical density of the samples in wells of antibiotics and inoculum in order to determine if there is growth in a well. The present invention is not limited to a concentration of 10,000 cells/mL.
Interactions between pairs of bacterial species were investigated using a logistic regression model to predict resistance in the presence of specific bacterial species. […]

For assay [2], the system named is Coagulase-negative Staphylococcus (CoNS) and E. coli. The assay is described as above. Format: cell-based, Coagulase negative staphylococci; Escherichia coli. As to conditions: CoNS and E. coli together v. expected from each species alone (HSAP/UP). As to the method:
as §1
(§3) P-AST was performed by aliquoting 1 mL of patient urine specimen into a 1.7 mL microcentrifuge tube. After centrifugation, the supernatant was aspirated and discarded, leaving approximately 100 or 50 μL (minimum volume left above pellet created from centrifugation) of patient sample in the microcentrifuge tube. […] Optical density of samples was then read on a DensiCHEK plate reader. […] A spectrophotometer (plate reader) is used to measure optical density of the samples in wells of antibiotics and inoculum in order to determine if there is growth in a well. […]

For assay [3], the system named is E. coli and S. agalactiae. The assay is described as above. Format: cell-based, Escherichia coli; Streptococcus agalactiae. As to conditions: E. coli and S. agalactiae together v. expected from each species alone (HSAP/UP). As to the method:
as §1, §2
(§4) Interactions between pairs of bacterial species were investigated using a logistic regression model to predict resistance in the presence of specific bacterial species. Bacterial species that tested positive in at least 30 samples were considered in the regression model: these 16 species were A. schaalii, A. urinae, A. omnicolens, CoNS, C. riegelii, E. faecalis, E. coli, K. oxytoca, K. pneumoniae, M. morganii, P. mirabilis, P. aeruginosa, S. aureus, S. agalactiae, U. urealyticum, VGS. Backward stepwise model selection was performed on the model with all main effects and all pairwise interactions using an enter significance level of α=0.10 and an exit significance level of α=0.05 to obtain the best fitting model. This model was used to predict resistance rates when a specific organism was present or when a specific pair of organisms were present.
(§5) Using the logistic regression model described above, the resistance rate for a pair of species was compared to the resistance rates for each species alone. […]

A further assay has as its system E. coli and P. mirabilis. The assay is described as above. The assay is classed as cell-based, Escherichia coli; Proteus mirabilis. As to conditions: E. coli and P. mirabilis together v. expected from each species alone (HSAP/UP). As to the method:
as §1, §2, §4, §5

For the next assay, the system named is E. faecalis and E. coli. The assay is described as above. The assay is classed as cell-based, Enterococcus faecalis; Escherichia coli. The following applies: E. faecalis and E. coli together v. expected from each species alone (HSAP/UP). As to the method: as §1, §3
For assay [4], the system named is E. faecalis and P. mirabilis. The description is as above. The assay is classed as cell-based, Enterococcus faecalis; Proteus mirabilis. The following applies: E. faecalis and P. mirabilis together v. expected from each species alone (HSAP/UP). As to the method:
as §1, §3

Assay [5] relates to E. faecalis and P. aeruginosa. The description is as above. The assay is classed as cell-based, Enterococcus faecalis; Pseudomonas aeruginosa. As to conditions: E. faecalis and P. aeruginosa together v. expected from each species alone (HSAP/UP). As to the method: as §1, §3
Assay [6] relates to E. faecalis and K. pneumoniae. The description is as above. Format: cell-based, Enterococcus faecalis; Klebsiella pneumoniae. The following applies: E. faecalis and K. pneumoniae together v. expected from each species alone (HSAP/UP). As to the method: as §1, §3
The test system of a further assay is E. coli and K. oxytoca. The assay is described as above. The following applies: E. coli and K. oxytoca together v. expected from each species alone (HSAP/UP). Format: cell-based, Escherichia coli; Klebsiella oxytoca. As to the method:
as §1, §3

The subject of assay [7] is E. faecalis and S. agalactiae. Described as above. Format: cell-based, Enterococcus faecalis; Streptococcus agalactiae. As to conditions: E. faecalis and S. agalactiae together v. expected from each species alone (HSAP/UP). As to the method:
as §1, §3

In assay [8] the test system is bacteria detected in patient urine specimens. Kind of assay: Pooled Antibiotic Susceptibility Testing (P-AST) of urine specimens, polymicrobial v. monomicrobial (logistic regression). The following applies: polymicrobial urine specimens. The assay is classed as cell-based.
Text: The present invention describes Pooled Antibiotic Susceptibility Testing (P-AST), which involves simultaneously growing all detected bacteria together in the presence of antibiotics and then measuring susceptibility. […] Urine specimens were obtained from patients presenting with UTI-like symptoms to 37 urology clinics. The odds of resistance were estimated for 18 antibiotics relative to increasing numbers of bacterial species in a specimen.
The following study combines data from two studies of antibiotic resistance patterns in elderly patients presenting with symptoms consistent with a UTI. […] All subjects met the following inclusion and exclusion criteria. Inclusion criteria included: symptoms of acute cystitis, complicated UTI, persistent UTI, recurrent UTI, prostatitis, pyelonephritis, interstitial cystitis (at any age), symptoms of other conditions at years of age, specimen volumes sufficient to permit urine culture and Multiplex Polymerase Chain Reaction (M-PCR) combined with Pooled Antibiotic Sensitivity Testing (P-AST), patient informed consented, documented times at which the specimens were collected and stabilized with boric acid in grey-top tubes. Exclusion criteria included prior participation in this study, antibiotics taken for any reason other than UTI at the time of enrollment, chronic (≥10 days) indwelling catheters, self-catheterization, and urinary diversion.
(§6) The Pooled Antibiotic Sensitivity Test (P-AST) is permitting the organisms identified to grow in the presence of antibiotics and measuring the minimum concentration of antibiotic to inhibit growth. Antibiotic susceptibility testing is performed when at least a single organism within a pool of organisms reaches a certain threshold, (e.g., at least 3,000 cells/ml, at least 5,000 cells/ml, at least 10,000 cells/ml, etc.) and can grow in the presence of the antibiotic in the assay within the time of testing. […] These pools of organism(s) are inoculated into growth medium then placed onto an antibiotic laden “spec plate” that is then incubated and analyzed for growth. The breakpoints are derived from the CLSI breakpoints.
In assay [9] the test system is Coagulase-negative Staphylococcus (CoNS) and S. agalactiae. The following applies: CoNS and S. agalactiae together v. expected from each species alone (HSAP/UP).
Experimental: as §6
P-AST was performed by aliquoting 1 mL of patient urine specimen into a 1.7 mL microcentrifuge tube. After centrifugation, the supernatant was aspirated and discarded, leaving approximately 100 or 50 μL (minimum volume left above pellet created from centrifugation) of patient sample in the microcentrifuge tube. One mL of Mueller Hinton Growth Media was then aliquoted into the patient sample in the microcentrifuge tube and the tubes were incubated at 35° C. in a non-CO2 incubator for 6 hours. […] Those samples that reached a minimum threshold of 10,000 cells/mL were then diluted by aliquoting 0.5 mL of sample into a 50 mL conical tube containing Mueller Hinton Growth Media (in this example, the dilution was 1:60, e.g., 500 μL was added to 29.5 mL). 96-well plates pre-loaded with antibiotics were then inoculated with diluted samples and incubated along with control plates for 12-16 hours at 35° C. in a single layer. Optical density of samples was then read on a DensiCHEK plate reader. The DensiCHEK instrument is used to measure the concentration of turbid samples considered positive because PCR-ID result was >=10,000 cells/mL. The turbid samples were diluted/normalized to the same concentration and then added to a volume of liquid, e.g., 29.5 mL of liquid MH-media. A spectrophotometer (plate reader) is used to measure optical density of the samples in wells of antibiotics and inoculum in order to determine if there is growth in a well.
Interactions between pairs of bacterial species were investigated using a logistic regression model to predict resistance in the presence of specific bacterial species. Bacterial species that tested positive in at least 30 samples were considered in the regression model: these 16 species were A. schaalii, A. urinae, A. omnicolens, CoNS, C. riegelii, E. faecalis, E. coli, K. oxytoca, K. pneumoniae, M. morganii, P. mirabilis, P. aeruginosa, S. aureus, S. agalactiae, U. urealyticum, VGS. […]
The test system of assay [10] is Coagulase-negative Staphylococcus (CoNS) and E. faecalis. Kind of assay: P-AST species-pair interaction on antibiotic resistance (logistic regression, HSAP/UP). Format: cell-based, Coagulase negative staphylococci; Enterococcus faecalis. As to conditions: CoNS and E. faecalis together v. expected from each species alone (HSAP/UP). As to the method:
as §1, §3

Regarding `CO/N=C(\C(=O)N[C@@H]1C(=O)N2C(C(=O)O)=C(CSc3nc(=O)c(=O)[nH]n3C)CS[C@H]12)c1csc(N)n1` [Ceftriaxone, ceftriaxone], the “change in antibiotic resistance of the pair of organisms” value (“change in antibiotic resistance” for short) was “decrease in resistance; also recorded: decreased odds of resistance” in [1]; “decrease in resistance; also recorded: decreased probability in resistance; also recorded: decreased odds of resistance” in assay [2]; “decrease in resistance; also recorded: decreased odds of resistance” in [3]; “decrease in resistance; also recorded: decreased odds of resistance” with E. coli and P. mirabilis.
`C[C@@H](O)[C@H]1C(=O)N2C(C(=O)O)=C(S[C@@H]3CN[C@H](C(=O)N(C)C)C3)[C@H](C)[C@H]12` [Meropenem, meropenem]: the “change in antibiotic resistance” value in the assay with E. faecalis and E. coli is reported as “decrease in resistance; also recorded: decreased odds of resistance”; in assay [4], “decrease in resistance; also recorded: decreased odds of resistance”; in assay [5], “decrease in resistance; also recorded: decreased odds of resistance”; in assay [6], “decrease in resistance; also recorded: decreased odds of resistance”.
Regarding `O=C(O)c1cn(C2CC2)c2cc(N3CCNCC3)c(F)cc2c1=O` [Ciprofloxacin, ciprofloxacin], the “change in antibiotic resistance” value in assay [1] is “decrease in resistance; also recorded: decreased odds of resistance”; in [3] it was “decrease in resistance; also recorded: decreased odds of resistance”; in the assay with E. coli and K. oxytoca, “decrease in resistance; also recorded: decreased odds of resistance”.
`CC1(C)S[C@@H]2[C@H](NC(=O)[C@H](N)c3ccccc3)C(=O)N2[C@H]1C(=O)O` [Ampicillin, ampicillin]: the “change in antibiotic resistance” value in assay [1] is given as “reduced resistance”; in assay [7], “decrease in resistance; also recorded: decreased odds of resistance”; in [3] it was “decrease in resistance; also recorded: decreased odds of resistance”. The “odds of resistance for each additional species identified (in words)” value in assay [8] was “increased”.
On to `CN[C@H](CC(C)C)C(=O)N[C@H]1C(=O)N[C@@H](CC(N)=O)C(=O)N[C@H]2C(=O)N[C@H]3C(=O)N[C@H](C(=O)N[C@H](C(=O)O)c4cc(O)cc(O)c4-c4cc3ccc4O)[C@H](O)c3ccc(c(Cl)c3)Oc3cc2cc(c3O[C@@H]2O[C@H](CO)[C@@H](O)[C@H](O)[C@H]2O[C@H]2C[C@](C)(N)[C@H](O)[C@H](C)O2)Oc2ccc(cc2Cl)[C@H]1O` [Vancomycin, vancomycin], for which the “change in antibiotic resistance” value in [9], in assay [7] and in assay [10] was “decrease in resistance; also recorded: decreased odds of resistance” in each case. Moreover, in assay [8], the “odds of resistance for each additional species identified (in words)” value was “increased”.
`CO[C@@]1(NC(=O)Cc2cccs2)C(=O)N2C(C(=O)O)=C(COC(N)=O)CS[C@@H]21` [Cefoxitin, cefoxitin]: in the assay with E. coli and P. mirabilis, the “change in antibiotic resistance” value is recorded as “decrease in resistance; also recorded: decreased odds of resistance”.
